# US12023329B2, “Methods for the treatment of diseases associated with activation of inflammasomes” (Chang Gung University, priority 2020, dated 2024)
# Key:
# LPS-primed d-THP-1 cells [1] = assay: Nigericin-induced IL-18 secretion in LPS-primed d-THP-1 cells (ELISA); type: cell-based, Human; conditions: rebastinib 0.01-1 μM, 30 min pre-incubation, nigericin 5 μM 30 min
# Description: (§1) Human monocytic cell line THP-1 was purchased from American Type Culture Collection (ATCC) and maintained in RPMI-1640 Medium supplemented with 10% fetal bovine serum (FBS), 1% antibiotic-antimycotic solution, 0.1% (3-mercaptoethanol ((3-ME), and phenol red indicator in an incubator at 37° C. with 5% CO2. The medium was changed every 2-3 days.
# (§2) To induce differentiation, THP-1 cells (cell density was about 5×10^5/mL) was cultivated in a serum-free medium containing 100 nM of phorbol 12-myristate 13-acetate (PMA) for about 4 hr. Then, the PMA-containing medium was replaced with a fresh RPMI-1640 medium, and the cultivation was continued for another 2 days to allow the THP-1 cells to differentiate into macrophage-like cells, hereafter termed “d-THP-1 cells.”
# (§3) d-THP1 cells were first treated with 100 ng/mL of lipopolysaccharide (LPS) for 3 hr, then LPS-containing medium was replaced by a fresh medium. […]
# (§4) The level of IL-1β and IL-18 was independently determined by ELISA assay kit (R&D system) in accordance with the manufacturer's protocol. The level of […] and IL-18 was determined from the 450 and 540 nm absorbance measured by Multiskan GO multiplate reader. […]
# LPS-induced ALI in mice = assay: Animal model of LPS-induced acute lung injury (ALI); type: in vivo, mice (C57BL/6); conditions: rebastinib 10 mg/kg i.v. 1 hr before intra-tracheal LPS 2 mg/kg, lungs collected 5 hr later
# Description: (§5) C57BL/6 mice (7-10-week-old, each weighted about 20-25 g) were maintained in micro-isolator units on a standard laboratory diet. Animals were housed under humidity- and temperature-controlled conditions and the light/dark cycle was set at 12-hr intervals, maintained under specified and opportunistic pathogen-free conditions. All animal studies were conducted under protocol approved by the Animal Care and Use Committee of Chang Gung University (Taipei, Taiwan).
# ALI was induced by intra-tracheal spray of 2 mg/kg LPS in 7-8 weeks old C57BL/6 mice. Mice were fasted overnight and then intravenously injected with 50 ul of rebastinib (10 mg/kg) or an equal volume of solvent (vehicle). After 1 hr, mice were instilled with an intra-tracheal spray of 2 mg/kg LPS (dissolved in 40 μl 0.9% saline) or 0.9% saline under anesthesia. 5 hr later, mice were sacrificed and the lungs were collected. The lungs were fixed in 10% formalin for tissue section. The lung sections were stained with hematoxylin and eosin (H&E).
# In this example, animal model of ALI was used to investigate the effect of the present compound on ALI. Mice were intravenously injected with 50 ul of rebastinib (10 mg/kg) or an equal volume of solvent (vehicle). After 1 hr, mice were instilled with an intra-tracheal spray of 2 mg/kg LPS (dissolved in 40 μl 0.9% saline) or 0.9% saline under anesthesia. […]
# [2] = tested on: LPS/D-GalN-induced acute liver failure in mice; assay: Animal model of LPS/D-GalN-induced acute liver failure; type: in vivo, mice (C57BL/6); conditions: for acute liver failure: liver bleeding and inflammation (gross liver morphology): rebastinib 5 or 10 mg/kg i.v. 1 hr before LPS (40 μg/kg)/D-GalN (400 mg/kg) i.p.
# Description: as §5
# Mice were randomly divided into 4 groups. The test compound rebastinib (5 or 10 mg/Kg) or a control solvent (80% saline, 10% ethanol, 10% Tween-20) was injected through the tail vein of each mice. The mice were allowed to rest for 1 hr, then LPS ([…])/D-GalN (400 mg/Kg) was injected through abdominal space for 5 hr to induce acute liver failure. Blood samples and tissue samples were respectively collected. Blood samples were analyzed for their respective levels of LDH, AST, ALT, BUN, and CRE. The livers were fixed in 10% formalin for tissue section. The liver sections were stained with hematoxylin and eosin (H&E).
# In this example, animal model of acute liver failure was used to investigate the effect of the present compound on acute liver failure. Briefly, animals were first subjected to LPS/D-GalN treatment (LPS: 40 […]) to create acute liver failure, then blood and tissue samples with or without treatment of the present compound were taken, which were then subjected to biochemistry and microscopy analysis.
# LPS-primed d-THP-1 cells [3] = assay: Nigericin-induced ASC speck formation (fluorescent microscopy); type: cell-based, Human; conditions: rebastinib 1 μM or glibenclamide 50 μM, 30 min, nigericin 5 μM 30 min, anti-ASC staining
# Description: d-THP-1 cells (treated with LPS, the tested compound, and the stimulant as described above or untreated) were fixed by 4% paraformaldehyde, washed with PBS (3 times), treated with Triton-X-100 (0.1%) for 10 min, washed with PBS (3 times), added 5% BSA for 1 hr, then washed with PBS (3 times) before the primary antibody (anti-ASC) was added. The primary anti-ASC antibody labeled cells were incubated at 4° C. overnight, then was labeled with the secondary antibody at RT for 1 hr, washed with PBS (3 times), added Hoechst 33342, washed with PBS (3 times), added ProLong™ Gold antifade reagent, then photographed using Fluorescent Microscope (IX81 Olympus, with Lumen 200 Fluorescence Illumination System). A hallmark of inflammasome activation is the ASC speck, a micrometre-sized structure formed by the inflammasome adaptor protein ASC (apoptosis-associated speck-like protein containing a CARD), which consists of a pyrin domain (PYD) and a caspase recruitment domain (CARD). In this example, the effect of the present compound on nigericin-induced formation of ASC speck in LPS-primed d-THP-1 cells was observed using fluorescence microscope, and results are illustrated in FIG. 8.
# LPS-primed d-THP-1 cells [4] = assay: Nigericin-induced pyroptotic cell death observed by field emission scanning electron microscopy; type: cell-based, Human; conditions: rebastinib 1 μM or glibenclamide 50 μM, 30 min, nigericin 5 μM 30 min, SEM images
# Description: d-THP-1 cells (treated with LPS, the tested compounds, and the stimulant as described above or untreated) were fixed, in sequence, by use of 4% paraformaldehyde and 2.5% glutaraldehyde, respectively for 10 min, washed with PBS, then reacted with osmium tetroxide (OsO4) for 30 min; the cells were thoroughly washed with distilled water, then incubated with tannic acid for 30 min. […] Repeated the 100% ethanol dehydration step 3 times. The specimens were then dried with a mixture of CO2 and ethanol supercritical condition using Critical Point Dryer (CPD) (LEICAME CPD 300). The dried specimens were subsequently fixed on an alumina platform, and sputted with gold ions (ion sputter, JEOL JFC-1100E, operated at 1-2 mA for 60 sec) before subjecting to observation under Field Emission Scanning Electron Microscope (FE-SEM).
# (§6) Pyroptosis is a form of programmed cell death. In this process, immune cells recognize foreign danger signals within themselves, release pro-inflammatory cytokines, swell, burst, and die. In this example, the effects of the present compound on nigericin-induced pyroptotic cell death and LDH release were investigated, in which the pyroptosis phenomena was observed using Field Emission Scanning Electron Microscope, and LDH level was determined by enzymatic assay.
# LPS-primed d-THP-1 cells [5] = assay: Imiquimod-induced IL-1β secretion in LPS-primed d-THP-1 cells (ELISA); type: cell-based, Human; conditions: rebastinib 0.003-1 μM, 30 min pre-incubation, IMQ 100 μM 2 hr
# Description: as §1, §2, §3, §4
# LPS-primed d-THP-1 cells [6] = assay: MSU-induced IL-1β secretion in LPS-primed d-THP-1 cells (ELISA); type: cell-based, Human; conditions: rebastinib 0.003-1 μM, 30 min pre-incubation, MSU 100 μg/ml 4 hr
# Description: as §1, §2, §3, §4
# LPS-primed d-THP-1 cells [7] = assay: Nigericin-induced IL-1β secretion in LPS-primed d-THP-1 cells (ELISA); type: cell-based, Human; conditions: rebastinib 0.01-1 μM, 30 min pre-incubation, nigericin 5 μM 30 min, IL-1β in supernatant by ELISA
# Description: as §1, §2, §3, §4
# LPS-primed d-THP-1 cells [8] = assay: Nigericin-induced pyroptotic LDH release; type: cell-based, Human; conditions: rebastinib 0.01-1 μM, 30 min, nigericin 5 μM 30 min
# Description: as §6
# [9] = rebastinib 5 or 10 mg/kg i.v., LPS/D-GalN i.p. 5 hr
compound,measurement,setting,value
4-[4-[(5-tert-butyl-2-quinolin-6-ylpyrazol-3-yl)-carbamoylamino]-3-fluorophenoxy]-N-methylpyridine-2-carboxamide [rebastinib],nigericin-induced IL-18 secretion,LPS-primed d-THP-1 cells [1],inhibited
same,nigericin-induced IL-18 secretion,LPS-primed d-THP-1 cells [1]; listed as present compound,significantly reduced
same,LPS-induced lung morphology change and infiltration (H&E),LPS-induced ALI in mice,significantly attenuated
same,LPS-induced lung morphology change and infiltration (H&E),LPS-induced ALI in mice; listed as Rebastinib,attenuated
same,acute liver failure: liver bleeding and inflammation (gross liver morphology),[2]; 5 hr,attenuated
same,acute liver failure: liver bleeding and inflammation (gross liver morphology),"[2]; 5 hr, listed as present compound",significant attenuation
same,liver tissue weight,"[2]; rebastinib 5 or 10 mg/kg i.v. 1 hr before LPS/D-GalN i.p., 5 hr",decreases
same,serum ALT level,[2]; [9],decreased significantly
same,serum AST level,[2]; [9],decreased significantly
same,serum CRE level,[2]; [9],decreased significantly
same,serum LDH level,[2]; [9],decreased significantly
same,"serum biochemical parameters (AST, ALT, BUN, CRE, LDH)","[2]; rebastinib 5 or 10 mg/kg i.v., LPS/D-GalN i.p. 5 hr, clinical chemistry analyzer",attenuated
same,nigericin-induced ASC speck formation,LPS-primed d-THP-1 cells [3],inhibited
same,nigericin-induced ASC speck formation,LPS-primed d-THP-1 cells [3]; listed as present compound,greatly reduced
same,"nigericin-induced pyroptotic cell death (swelling, bubbles, lysis)",LPS-primed d-THP-1 cells [4],inhibited
same,"nigericin-induced pyroptotic cell death (swelling, bubbles, lysis)",LPS-primed d-THP-1 cells [4]; listed as present compound,significantly reduced
same,imiquimod-induced IL-1β secretion,LPS-primed d-THP-1 cells [5],inhibited
same,imiquimod-induced IL-1β secretion,LPS-primed d-THP-1 cells [5]; listed as present compound,suppressed
same,MSU-induced IL-1β secretion,LPS-primed d-THP-1 cells [6],inhibited
same,MSU-induced IL-1β secretion,LPS-primed d-THP-1 cells [6]; listed as present compound,suppressed
same,nigericin-induced IL-1β secretion,LPS-primed d-THP-1 cells [7],inhibited
same,nigericin-induced IL-1β secretion,LPS-primed d-THP-1 cells [7]; listed as present compound,significantly reduced
same,nigericin-induced pyroptotic LDH release,LPS-primed d-THP-1 cells [8],inhibited
same,nigericin-induced pyroptotic LDH release,LPS-primed d-THP-1 cells [8]; listed as present compound,inhibitory effect
COc1ccc(Cl)cc1C(=O)NCCc1ccc(S(=O)(=O)NC(=O)NC2CCCCC2)cc1 [glibenclamide],nigericin-induced ASC speck formation,LPS-primed d-THP-1 cells [3],greatly reduced
same,"nigericin-induced pyroptotic cell death (swelling, bubbles, lysis)",LPS-primed d-THP-1 cells [4],significantly reduced
